Some test systems named below: HOP-62 NSCLC; KM12 colon; LOX IMVI melanoma; MCF7 breast; MOLT-4 leukemia; NCI-H23 lung; NCI-H460 lung; NCI-H522 lung; SK-MEL-5 melanoma; TK-10 renal.
Common to all, as to assay: NCI tumour cell line growth inhibition, 48 h

The structures appear in SMILES notation. Several values for one entry are separate records, joined by “and”; a condition that tells them apart may be missing. Equal entries are not always repeated.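 Growth conditions: 96-well plates. Treatment: test compound, 48 hours, 5 concentrations. Analysis: linear interpolation between bracketing concentrations; unreached endpoints set to highest concentration. TGI: concentration producing complete growth inhibition.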

For the compound `CN(C)CCCN1c2ccc([N+](=O)[O-])cc2CCc2cc([N+](=O)[O-])ccc21`, the TGI in the assay with HOP-62 NSCLC was 30.4 µM and 25.6 µM; with KM12 colon it was 28.6 µM and 33.1 µM; in the assay with LOX IMVI melanoma, 32.4 µM and 26.5 µM; with MCF7 breast, 31.2 µM; in the assay with MOLT-4 leukemia it was 42.9 µM and 25.3 µM; in the assay with NCI-H23 lung it was 33.7 µM and 34.9 µM. The TGI in the assay on NCI-H460 lung is 30 µM and 26.2 µM; in the assay on NCI-H522 lung, 32.3 µM and 34 µM; with SK-MEL-5 melanoma, 29.5 µM and 23.1 µM; with TK-10 renal, 23.3 µM and 24.3 µM.
With `C[N+](C)(C)CCN[N+]1(C)CCCc2ccccc21` (stereo not given), the TGI in the assay on HOP-62 NSCLC is greater than 100 µM; with KM12 colon it was greater than 100 µM; in the assay on LOX IMVI melanoma, greater than 100 µM; with MCF7 breast, greater than 100 µM; in the assay on MOLT-4 leukemia, 90.6 µM; with NCI-H23 lung it was greater than 100 µM. Besides, the TGI in the assay with NCI-H460 lung is greater than 100 µM; in the assay with NCI-H522 lung it was 40.3 µM; with SK-MEL-5 melanoma, greater than 100 µM; in the assay with TK-10 renal, greater than 100 µM.
As for `c1ccc([P+](c2ccccc2)(c2ccccc2)c2ccc(-c3ccc([P+](c4ccccc4)(c4ccccc4)c4ccccc4)cc3)cc2)cc1`, the TGI in the assay on HOP-62 NSCLC is greater than 100 µM; in the assay on KM12 colon, greater than 100 µM; in the assay with LOX IMVI melanoma it was 51.9 µM; in the assay with MCF7 breast it was greater than 100 µM; in the assay on MOLT-4 leukemia, greater than 100 µM; in the assay with NCI-H23 lung, 55.3 µM. Moreover, the TGI with NCI-H460 lung is greater than 100 µM; in the assay on NCI-H522 lung, 64.4 µM; with SK-MEL-5 melanoma, 3.32 µM; in the assay with TK-10 renal, greater than 100 µM.
Turning to `Cc1c2cc[n+](C)cc2c(C)c2c1oc1ccccc12`, the TGI was 11.2 µM with HOP-62 NSCLC; 11.6 µM with KM12 colon; 19.7 µM in the assay on LOX IMVI melanoma; 70.5 µM in the assay on MCF7 breast; 28.7 µM with MOLT-4 leukemia; 11.2 µM in the assay with NCI-H23 lung. The TGI with NCI-H460 lung is 16.7 µM; in the assay on NCI-H522 lung, 8.17 µM; with SK-MEL-5 melanoma it was 14.1 µM; in the assay on TK-10 renal it was 98.8 µM.
As for `CCOP(=O)(OCC)C(Nc1cccc(F)c1)c1ccc(N(C)C)cc1` (stereo not given), the TGI with HOP-62 NSCLC, with KM12 colon, in the assay with LOX IMVI melanoma, with MCF7 breast, with MOLT-4 leukemia and with NCI-H23 lung was greater than 100 µM in each case. Moreover, the TGI in the assay with NCI-H460 lung, with NCI-H522 lung, in the assay on SK-MEL-5 melanoma and with TK-10 renal was greater than 100 µM each time.

Values taken from PubChem BioAssay (NCI).
